Results reported in the supplement of paper PMC10307832.

Legend:
Assay in all cases: relative viability (nuclei count vs DMSO), 5 days (fraction); higher = more cells survive
[1] = test system: SW 1573
Outline: (§1)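 Lung cancer cell lines were seeded in 1536-well plates and dosed by pin tool the next day, with either a single drug or a fixed anchor-drug dose combined with five library-drug doses (not always all listed) spaced in √10 steps. Five days later, one step fixed the cells and stained their nuclei (final 0.05% Triton X-100, 1% formaldehyde, 1 ug/ml Hoechst), and nuclei were counted on 4× images. Relative viability is the nuclei count in treated wells divided by the count in vehicle wells, and each value is the median of duplicate plates.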

[2] = test system: A549
Outline: as §1

[3] = test system: COR-L23
Outline: as §1

[4] = test system: ABC-1
Outline: as §1

[5] = test system: NCI-H1651
Outline: as §1

[6] = test system: NCI-H1648
Outline: as §1

[7] = test system: SK-MES-1
Outline: as §1

[8] = test system: NCI-H1437
Outline: as §1

[9] = test system: ChaGo-K-1
Outline: as §1

[10] = test system: IA-LM
Outline: as §1

CC(=O)O[C@@]12CO[C@@H]1C[C@H](O)[C@@]1(C)C(=O)[C@H](O)C3=C(C)[C@@H](OC(=O)[C@H](O)[C@@H](NC(=O)OC(C)(C)C)c4ccccc4)C[C@@](O)([C@@H](OC(=O)c4ccccc4)[C@H]21)C3(C)C [Docetaxel] + Nc1ncn([C@H]2C[C@H](O)[C@@H](CO)O2)c(=O)n1 [Decitabine] (partner 2 µM)
relative viability ([1]; first compound 0.0002 µM): 0.387 | relative viability ([1]; first compound 0.000632 µM): 0.296 | relative viability ([1]; first compound 0.002 µM): 0.172 | relative viability ([1]; first compound 0.006325 µM): 0.165 | relative viability ([1]; first compound 0.02 µM): 0.121 | relative viability ([2]; first compound 0.0002 µM): 0.297 | relative viability ([2]; first compound 0.000632 µM): 0.18 | relative viability ([2]; first compound 0.002 µM): 0.0587 | relative viability ([2]; first compound 0.006325 µM): 0.0522 | relative viability ([2]; first compound 0.02 µM): 0.0318 | relative viability ([3]; first compound 0.0002 µM): 0.39 | relative viability ([3]; first compound 0.000632 µM): 0.443 | relative viability ([3]; first compound 0.002 µM): 0.291 | relative viability ([3]; first compound 0.02 µM): 0.121 | relative viability ([4]; first compound 0.0002 µM): 1.04 | relative viability ([4]; first compound 0.000632 µM): 0.923 | relative viability ([4]; first compound 0.002 µM): 1.01 | relative viability ([4]; first compound 0.006325 µM): 0.618 | relative viability ([4]; first compound 0.02 µM): 0.416 | relative viability ([5]; first compound 0.0002 µM): 0.458 | relative viability ([5]; first compound 0.000632 µM): 0.547 | relative viability ([5]; first compound 0.002 µM): 0.299 | relative viability ([5]; first compound 0.006325 µM): 0.173 | relative viability ([6]; first compound 0.0002 µM): 0.452 | relative viability ([6]; first compound 0.000632 µM): 0.487 | relative viability ([6]; first compound 0.002 µM): 0.339 | relative viability ([6]; first compound 0.006325 µM): 0.216 | relative viability ([6]; first compound 0.02 µM): 0.231 | relative viability ([7]; first compound 0.0002 µM): 0.375 | relative viability ([7]; first compound 0.000632 µM): 0.381 | relative viability ([7]; first compound 0.002 µM): 0.347 | relative viability ([7]; first compound 0.02 µM): 0.164 | relative viability ([8]; first compound 0.0002 µM): 0.526 | relative viability ([8]; first compound 0.000632 µM): 0.629 | relative viability ([8]; first compound 0.002 µM): 0.406 | relative viability ([8]; first compound 0.006325 µM): 0.307 | relative viability ([8]; first compound 0.02 µM): 0.196 | relative viability ([9]; first compound 0.0002 µM): 0.461 | relative viability ([9]; first compound 0.000632 µM): 0.548 | relative viability ([9]; first compound 0.002 µM): 0.381 | relative viability ([9]; first compound 0.006325 µM): 0.276 | relative viability ([9]; first compound 0.02 µM): 0.21

COc1cc2nccc(Oc3ccc(NC(=O)Nc4cc(C)on4)c(Cl)c3)c2cc1OC [Tivozanib] + O=C(CCCCCCC(=O)Nc1ccccc1)NO [Vorinostat] (partner 1 µM)
relative viability ([1]; first compound 0.005 µM): 0.614 | relative viability ([1]; first compound 0.01581 µM): 0.935 | relative viability ([1]; first compound 0.05 µM): 0.677 | relative viability ([1]; first compound 0.1581 µM): 0.506 | relative viability ([1]; first compound 0.5 µM): 0.281 | relative viability ([3]; first compound 0.005 µM): 0.444 | relative viability ([3]; first compound 0.01581 µM): 0.454 | relative viability ([3]; first compound 0.05 µM): 0.607 | relative viability ([3]; first compound 0.1581 µM): 0.33 | relative viability ([3]; first compound 0.5 µM): 0.311 | relative viability ([10]; first compound 0.005 µM): 0.93 | relative viability ([10]; first compound 0.01581 µM): 0.981 | relative viability ([10]; first compound 0.05 µM): 0.872 | relative viability ([10]; first compound 0.5 µM): 0.836 | relative viability ([4]; first compound 0.005 µM): 0.694 | relative viability ([4]; first compound 0.01581 µM): 1.11 | relative viability ([4]; first compound 0.05 µM): 1.3 | relative viability ([4]; first compound 0.1581 µM): 0.926 | relative viability ([4]; first compound 0.5 µM): 0.842 | relative viability ([5]; first compound 0.005 µM): 0.444 | relative viability ([5]; first compound 0.01581 µM): 0.53 | relative viability ([5]; first compound 0.05 µM): 0.619 | relative viability ([5]; first compound 0.1581 µM): 0.519 | relative viability ([5]; first compound 0.5 µM): 0.471 | relative viability ([6]; first compound 0.005 µM): 0.453 | relative viability ([6]; first compound 0.01581 µM): 0.706 | relative viability ([6]; first compound 0.05 µM): 0.804 | relative viability ([6]; first compound 0.1581 µM): 0.796 | relative viability ([6]; first compound 0.5 µM): 0.423 | relative viability ([7]; first compound 0.005 µM): 1.03 | relative viability ([7]; first compound 0.01581 µM): 1.07 | relative viability ([7]; first compound 0.05 µM): 1.13 | relative viability ([7]; first compound 0.1581 µM): 1.07 | relative viability ([7]; first compound 0.5 µM): 0.996 | relative viability ([8]; first compound 0.005 µM): 0.769 | relative viability ([8]; first compound 0.01581 µM): 0.876 | relative viability ([8]; first compound 0.05 µM): 0.815 | relative viability ([8]; first compound 0.1581 µM): 0.746 | relative viability ([8]; first compound 0.5 µM): 0.712 | relative viability ([9]; first compound 0.005 µM): 0.692 | relative viability ([9]; first compound 0.01581 µM): 0.727 | relative viability ([9]; first compound 0.05 µM): 0.773 | relative viability ([9]; first compound 0.1581 µM): 0.756 | relative viability ([9]; first compound 0.5 µM): 0.63

Nc1ccn([C@@H]2O[C@H](CO)[C@@H](O)[C@@H]2O)c(=O)n1 [Cytarabine] + O=C(CCCCCCC(=O)Nc1ccccc1)NO [Vorinostat] (partner 1 µM)
relative viability ([1]; first compound 0.005 µM): 0.606 | relative viability ([1]; first compound 0.01581 µM): 0.552 | relative viability ([1]; first compound 0.05 µM): 0.677 | relative viability ([1]; first compound 0.1581 µM): 0.225 | relative viability ([1]; first compound 0.5 µM): 0.15 | relative viability ([3]; first compound 0.005 µM): 0.376 | relative viability ([3]; first compound 0.01581 µM): 0.404 | relative viability ([3]; first compound 0.05 µM): 0.304 | relative viability ([3]; first compound 0.1581 µM): 0.136 | relative viability ([10]; first compound 0.005 µM): 0.868 | relative viability ([10]; first compound 0.01581 µM): 1.03 | relative viability ([10]; first compound 0.05 µM): 1.07 | relative viability ([10]; first compound 0.1581 µM): 0.518 | relative viability ([10]; first compound 0.5 µM): 0.578 | relative viability ([4]; first compound 0.005 µM): 0.934 | relative viability ([4]; first compound 0.01581 µM): 0.995 | relative viability ([4]; first compound 0.05 µM): 0.972 | relative viability ([4]; first compound 0.1581 µM): 0.933 | relative viability ([4]; first compound 0.5 µM): 0.744 | relative viability ([5]; first compound 0.005 µM): 0.585 | relative viability ([5]; first compound 0.01581 µM): 0.535 | relative viability ([5]; first compound 0.05 µM): 0.242 | relative viability ([5]; first compound 0.1581 µM): 0.489 | relative viability ([5]; first compound 0.5 µM): 0.417 | relative viability ([6]; first compound 0.005 µM): 0.4 | relative viability ([6]; first compound 0.01581 µM): 0.354 | relative viability ([6]; first compound 0.05 µM): 0.556 | relative viability ([6]; first compound 0.1581 µM): 0.408 | relative viability ([6]; first compound 0.5 µM): 0.357 | relative viability ([7]; first compound 0.005 µM): 0.851 | relative viability ([7]; first compound 0.01581 µM): 0.778 | relative viability ([7]; first compound 0.05 µM): 0.6 | relative viability ([7]; first compound 0.1581 µM): 0.283 | relative viability ([7]; first compound 0.5 µM): 0.233 | relative viability ([8]; first compound 0.005 µM): 0.889 | relative viability ([8]; first compound 0.01581 µM): 0.77 | relative viability ([8]; first compound 0.05 µM): 0.605 | relative viability ([8]; first compound 0.1581 µM): 0.423 | relative viability ([8]; first compound 0.5 µM): 0.303 | relative viability ([9]; first compound 0.005 µM): 0.673 | relative viability ([9]; first compound 0.01581 µM): 0.649 | relative viability ([9]; first compound 0.05 µM): 0.471 | relative viability ([9]; first compound 0.1581 µM): 0.408 | relative viability ([9]; first compound 0.5 µM): 0.288
